Experimental data reported in patent US11261211B2, “19-NOR neuroactive steroids and methods of use thereof” (Sage Therapeutics, Inc., priority 2013, dated 2022).

Assays:
α1β2γ2 GABAA receptor = α1β2γ2 GABAA receptor (Homo sapiens (Human), UniProt P14867+P47870); experiment: Patch clamp electrophysiology of recombinant α1β2γ2 GABAA receptors in LTK cells; assay type: cell-based; conditions: for activity at 10 µM / Emax: LTK; for activity at 10 µM / α1β2γ2 GABA Qpatch in Ltk (Efficacy at 10 μm): 10 μM compound, Qpatch, Ltk cells, GABA EC20 2 μM; for activity at 10 µM: read-out: α1β2γ2 GABA Qpatch in Ltk (Efficacy at 10 μm); for Emax / EC50: potentiation of GABA EC20 (2 μM) current; for Emax: read-out: GABAa alpha1 (α1β2γ2) Emax (%); for EC50: read-out: GABAa alpha1 (α1β2γ2)EC50
Summary of the method: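 Whole-cell voltage clamp at −80 mV, room temperature, in LTK cells stably expressing α1β2γ2 or CHO cells transiently expressing α4β3δ, manual or QPatch. Test article (0.01–10 μM, increasing, 30 s preincubation) then 2 μM GABA (EC20) for 2 s; potentiation = peak current with compound relative to GABA alone ×100.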

α4β3δ GABAA receptor = α4β3δ GABAA receptor (Homo sapiens (Human), UniProt P28472+P48169); experiment: Patch clamp electrophysiology of recombinant α4β3δ GABAA receptors in CHO cells; assay type: cell-based; conditions: 10 μM compound, GABA EC20 2 μM; for activity at 10 µM: manual patch, read-out: α4β3δ GABA Manual Patch in CHO (Efficacy at 10 μM)
Procedure: Cellular electrophysiology is used to measure the pharmacological properties of our GABAA receptor modulators in heterologous cell systems. Each compound is tested for its ability to affect GABA mediated currents at a submaximal agonist dose (GABA EC20=2 μM). LTK cells are stably transfected with the α1β2γ2 subunits of the GABA receptor and CHO cells are transiently transfected with the α4β3δ subunits via the Lipofecatamine method. Cells were passaged at a confluence of about 50-80% and then seeded onto 35 mm sterile culture dishes containing 2 ml culture complete medium without antibiotics or antimycotics. Confluent clusters of cells are electrically coupled (Pritchett et al., 1988). Because responses in distant cells are not adequately voltage clamped and because of uncertainties about the extent of coupling (Verdoorn et al., 1990), cells were cultivated at a density that enables the recording of single cells (without visible connections to other cells).
Whole cell currents were measured with HEKA EPC-10 amplifiers using PatchMaster software or by using the high throughput QPatch platform (Sophion). Bath solution for all experiments contained (in mM): NaCl 137 mM, KCl 4 mM, CaCl2 1.8 mM, MgCl2 1 mM, HEPES 10 mM, D-Glucose 10 mM, pH (NaOH) 7.4. In some cases 0.005% cremophor was also added. Intracellular (pipette) solution contained: KCl 130 mM, MgCl2 1 mM, Mg-ATP 5 mM, HEPES 10 mM, EGTA 5 mM, pH 7.2. During experiments, cells and solutions were maintained at room temperature (19° C.-30° C.). For manual patch clamp recordings, cell culture dishes were placed on the dish holder of the microscope and continuously perfused (1 ml/min) with bath solution. After formation of a Gigaohm seal between the patch electrodes and the cell (pipette resistance range: 2.5 MΩ-6.0 MΩ; seal resistance range: >1 GΩ) the cell membrane across the pipette tip was ruptured to assure electrical access to the cell interior (whole-cell patch-configuration). For experiments using the QPatch system, cells were transferred as suspension to the QPatch system in the bath solution and automated whole cell recordings were performed.
Cells were voltage clamped at a holding potential of −80 mV. For the analysis of test articles, GABA receptors were stimulated by 2 μM GABA after sequential pre-incubation of increasing concentrations of the test article. Pre-incubation duration was 30 s and the duration of the GABA stimulus was 2 s. Test articles were dissolved in DMSO to form stock solutions (10 mM). Test articles were diluted to 0.01, 0.1, 1, and 10 μM in bath solution. All concentrations of test articles were tested on each cell. The relative percentage potentiation was defined as the peak amplitude in response to GABA EC20 in the presence of the test article divided by the peak amplitude in response to GABA EC20 alone, multiplied by 100.

[1] = target: rat brain cortical membranes ([35S]-TBPS binding, GABA receptor complex); experiment: Steroid inhibition of [35S]-TBPS binding; conditions: 3 nM [35S]-TBPS, in the presence of 5 μM GABA
Procedure: TBPS binding assays using rat brain cortical membranes in the presence of 5 μM GABA has been described (Gee et al, J. Pharmacol. Exp. Ther. 1987, 241, 346-353; Hawkinson et al, Mol. Pharmacol. 1994, 46, 977-985; Lewin, A. H et al., Mol. Pharmacol. 1989, 35, 189-194).
Briefly, cortices are rapidly removed following decapitation of carbon dioxide-anesthetized Sprague-Dawley rats (200-250 g). The cortices are homogenized in 10 volumes of ice-cold 0.32 M sucrose using a glass/teflon homogenizer and centrifuged at 1500×g for 10 min at 4° C. The resultant supernatants are centrifuged at 10,000×g for 20 min at 4° C. to obtain the P2 pellets. The P2 pellets are resuspended in 200 mM NaCl/50 mM Na-K phosphate pH 7.4 buffer and centrifuged at 10,000×g for 10 min at 4° C. This washing procedure is repeated twice and the pellets are resuspended in 10 volumes of buffer. Aliquots (100 μL) of the membrane suspensions are incubated with 3 nM [^35S]-TBPS and 5 μL aliquots of test drug dissolved in dimethyl sulfoxide (DMSO) (final 0.5%) in the presence of 5 μM GABA. The incubation is brought to a final volume of 1.0 mL with buffer. […] Filter bound radioactivity is measured by liquid scintillation spectrometry. […]

SMILES	activity at 10 µM (α1β2γ2 GABAA receptor) [%]	activity at 10 µM (α4β3δ GABAA receptor) [%]	also measured
C[C@@]1(O)CC[C@H]2[C@H](CC[C@@H]3[C@@H]2CC[C@]2(C)[C@@H](C(=O)Cn4nc5ccncc5n4)CC[C@@H]32)C1 [SA-11]	> 500	100 to 500	–
C[C@@]1(O)CC[C@H]2[C@H](CC[C@@H]3[C@@H]2CC[C@]2(C)[C@@H](C(=O)Cn4nc5cc(F)c(F)cc5n4)CC[C@@H]32)C1 [SA-53]	–	–	IC50 [1]: 10 to 50 nM
C[C@@]1(O)CC[C@H]2[C@H](CC[C@@H]3[C@@H]2CC[C@]2(C)[C@@H](C(=O)Cn4cc5cccnc5n4)CC[C@@H]32)C1 [SA-18]	–	–	α1β2γ2 GABA Qpatch in Ltk (Efficacy at 10 μm) (α1β2γ2 GABAA receptor): C (“C” indicates an efficacy value of >500%); Emax (α1β2γ2 GABAA receptor): 500 to 1000%; EC50 (α1β2γ2 GABAA receptor): > 2000 nM; α4β3δ GABA Manual Patch in CHO (Efficacy at 10 μM) (α4β3δ GABAA receptor): C (“C” indicates an efficacy value of >500%)
C[C@@]1(O)CC[C@H]2[C@H](CC[C@@H]3[C@@H]2CC[C@]2(C)[C@@H](C(=O)Cn4cc5cncnc5n4)CC[C@@H]32)C1 [SA-35]	100 to 500	> 500	–
C[C@@]1(O)CC[C@H]2[C@@H](CC[C@@H]3[C@@H]2CC[C@]2(C)[C@@H](C(=O)Cn4nc5ccncc5n4)CC[C@@H]32)C1 [SB-8]	> 500	100 to 500	–
C[C@]12CC[C@H]3[C@@H](CC[C@H]4C[C@@](O)(CF)CC[C@@H]43)[C@@H]1CC[C@@H]2C(=O)Cn1nc2ccncc2n1 [SB-15]	100 to 500	100 to 500	–
C[C@]12CC[C@H]3[C@@H](CC[C@H]4C[C@@](O)(CF)CC[C@@H]43)[C@@H]1CC[C@@H]2C(=O)Cn1cc2ccc(F)cc2n1 [SG-20]	100 to 500	100 to 500	–
C[C@@]1(O)CC[C@H]2[C@H](CC[C@@H]3[C@@H]2CC[C@]2(C)[C@@H](C(=O)Cn4nc5ccccc5n4)CC[C@@H]32)C1 [SA-2]	100 to 500	> 500	Emax (α1β2γ2 GABAA receptor): 0 to 500%; EC50 (α1β2γ2 GABAA receptor): 500 to 1000 nM
C[C@@]1(O)CC[C@H]2[C@H](CC[C@@H]3[C@@H]2CC[C@]2(C)[C@@H](C(=O)Cn4cc5cc(Cl)ncc5n4)CC[C@@H]32)C1 [SA-30]	> 500	> 500	–
Cc1ccc2nn(CC(=O)[C@H]3CC[C@H]4[C@@H]5CC[C@@H]6C[C@](C)(O)CC[C@@H]6[C@H]5CC[C@]34C)nc2c1 [SA-44]	100 to 500	100 to 500	–
COC[C@@]1(O)CC[C@H]2[C@@H](CC[C@@H]3[C@@H]2CC[C@]2(C)[C@@H](C(=O)Cn4nc5ccccc5n4)CC[C@@H]32)C1 [SB-50]	10 to 100	100 to 500	–
C[C@@]1(O)CC[C@H]2[C@H](CC[C@@H]3[C@@H]2CC[C@]2(C)[C@@H](C(=O)Cn4cc5ccncc5n4)CC[C@@H]32)C1 [SA-20]	–	–	α1β2γ2 GABA Qpatch in Ltk (Efficacy at 10 μm) (α1β2γ2 GABAA receptor): C (“C” indicates an efficacy value of >500%); α4β3δ GABA Manual Patch in CHO (Efficacy at 10 μM) (α4β3δ GABAA receptor): C (“C” indicates an efficacy value of >500%)
C[C@@]1(O)CC[C@H]2[C@H](CC[C@@H]3[C@@H]2CC[C@]2(C)[C@@H](C(=O)Cn4cc5c(n4)CCCC5)CC[C@@H]32)C1 [SA-7]	–	–	α1β2γ2 GABA Qpatch in Ltk (Efficacy at 10 μm) (α1β2γ2 GABAA receptor): B (“B” indicates an efficacy value of >100-500%); α4β3δ GABA Manual Patch in CHO (Efficacy at 10 μM) (α4β3δ GABAA receptor): B (“B” indicates an efficacy value of >100-500%)
C[C@@]1(O)CC[C@H]2[C@H](CC[C@@H]3[C@@H]2CC[C@]2(C)[C@@H](C(=O)Cn4cc5ncncc5n4)CC[C@@H]32)C1 [SA-32]	> 500	> 500	–
Cc1cccc2nn(CC(=O)[C@H]3CC[C@H]4[C@@H]5CC[C@@H]6C[C@](C)(O)CC[C@@H]6[C@H]5CC[C@]34C)nc12 [SA-69]	100 to 500	100 to 500	–
C[C@@]1(O)CC[C@H]2[C@H](CC[C@@H]3[C@@H]2CC[C@]2(C)[C@@H](C(=O)Cn4nc5cccnc5n4)CC[C@@H]32)C1 [SA-14]	> 500	100 to 500	–
C[C@@]1(O)CC[C@H]2[C@H](CC[C@@H]3[C@@H]2CC[C@]2(C)[C@@H](C(=O)Cn4cc5ccccc5n4)CC[C@@H]32)C1 [SA-6]	–	–	α1β2γ2 GABA Qpatch in Ltk (Efficacy at 10 μm) (α1β2γ2 GABAA receptor): C (“C” indicates an efficacy value of >500%); Emax (α1β2γ2 GABAA receptor): 500 to 1000%; EC50 (α1β2γ2 GABAA receptor): > 2000 nM; α4β3δ GABA Manual Patch in CHO (Efficacy at 10 μM) (α4β3δ GABAA receptor): B (“B” indicates an efficacy value of >100-500%)
C[C@@]1(O)CC[C@H]2[C@H](CC[C@@H]3[C@@H]2CC[C@]2(C)[C@@H](C(=O)Cn4nc5cc(Cl)cnc5n4)CC[C@@H]32)C1 [SA-57]	> 500	100 to 500	–
C[C@@]1(O)CC[C@H]2[C@@H](CC[C@@H]3[C@@H]2CC[C@]2(C)[C@@H](C(=O)Cn4cc5ncccc5n4)CC[C@@H]32)C1 [SB-4]	–	–	α1β2γ2 GABA Qpatch in Ltk (Efficacy at 10 μm) (α1β2γ2 GABAA receptor): C (“C” indicates an efficacy value of >500%); α4β3δ GABA Manual Patch in CHO (Efficacy at 10 μM) (α4β3δ GABAA receptor): C (“C” indicates an efficacy value of >500%)
Cc1cc2cn(CC(=O)[C@H]3CC[C@H]4[C@@H]5CC[C@@H]6C[C@](C)(O)CC[C@@H]6[C@H]5CC[C@]34C)nc2cn1 [SA-24]	100 to 500	100 to 500	–
